The text below walks through data of paper PMC10401645 (ACS Chemical Neuroscience, 2023).

pEC50: −log10 of the molar value. Read-outs that look alike come from different tables or passages of the source.

One assay concerns 5-HT2A receptor. Nature of the assay: Bias factor. The following applies: LSD as reference agonist, 2 h AUC; positive = βarr2 preference.
For assay [1], the target named is T1, 5-HT2A (Homo sapiens, UniProt P28223). In words: NanoBiT βarr2 recruitment assay at 5-HT2A. The following applies: 2 h AUC; for EC50: β-arrestin2 EC50 (nM) (95% CI).
Target sequence in this assay (P28223 whole entry): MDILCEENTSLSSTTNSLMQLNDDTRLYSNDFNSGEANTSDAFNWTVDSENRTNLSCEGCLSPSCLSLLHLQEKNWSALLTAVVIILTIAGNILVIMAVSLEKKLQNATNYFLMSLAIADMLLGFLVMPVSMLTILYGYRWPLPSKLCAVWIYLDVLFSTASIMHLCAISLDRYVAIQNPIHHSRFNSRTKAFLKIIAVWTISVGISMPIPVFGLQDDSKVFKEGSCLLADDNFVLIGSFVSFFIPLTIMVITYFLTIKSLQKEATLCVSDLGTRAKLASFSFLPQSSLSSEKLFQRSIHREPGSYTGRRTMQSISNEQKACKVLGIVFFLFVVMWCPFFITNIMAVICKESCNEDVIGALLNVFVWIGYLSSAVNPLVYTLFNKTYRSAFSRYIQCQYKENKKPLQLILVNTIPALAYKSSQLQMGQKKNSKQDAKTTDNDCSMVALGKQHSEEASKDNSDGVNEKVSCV
Target sequence in this assay (P32121 whole entry partner): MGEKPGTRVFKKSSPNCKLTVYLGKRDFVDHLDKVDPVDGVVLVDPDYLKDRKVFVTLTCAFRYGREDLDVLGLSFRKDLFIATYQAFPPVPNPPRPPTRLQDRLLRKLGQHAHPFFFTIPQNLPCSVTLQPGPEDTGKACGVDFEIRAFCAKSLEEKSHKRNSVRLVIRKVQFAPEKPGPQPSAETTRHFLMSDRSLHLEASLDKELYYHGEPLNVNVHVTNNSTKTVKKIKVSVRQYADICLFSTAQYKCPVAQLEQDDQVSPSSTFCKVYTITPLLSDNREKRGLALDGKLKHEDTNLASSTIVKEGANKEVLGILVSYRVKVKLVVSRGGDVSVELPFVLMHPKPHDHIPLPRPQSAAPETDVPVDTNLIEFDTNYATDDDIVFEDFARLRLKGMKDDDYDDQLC
The target in assay [2] is T1, 5-HT2A. In words: NanoBiT miniGαq recruitment assay at 5-HT2A. The following applies: 2 h AUC; for EC50: miniGαq EC50 (nM) (95% CI); for EC50 / pEC50: LSD as reference agonist; for pEC50: miniGαq pEC50 (95% CI).
Target sequence in this assay (P28223 whole entry): as the sequence (P28223 whole entry) above
For assay [3], the target named is T1, 5-HT2A. The following applies: PI hydrolysis assay; cited from earlier work.
Target sequence in this assay (P28223 whole entry, species assumed): as the sequence (P28223 whole entry) above
Target sequence in this assay (P32121 whole entry partner, species assumed): as the sequence (P32121 whole entry partner) above

On to `CCOCc1cc(OC)c(CCN)cc1OC.Cl` [1d, 2-(4-(Ethoxymethyl)-2,5-dimethoxyphenyl)ethan-1-amine Hydrochloride], for which the “β (bias factor)” value in the assay on 5-HT2A receptor stood at 0.323. The half-maximal effective concentration (EC50) – broadly, the midpoint of the concentration-response curve – at 5-HT2A [1] (LSD as reference agonist) was 26.4 nM; on 5-HT2A [2], 75 nM.
The like results for `COc1cc(CCN)c(OC)cc1C#N.Cl` [2C-CN (1j), 4-(2-Aminoethyl)-2,5-dimethoxybenzonitrile Hydrochloride] were, in that order, 0.412, 174 nM and 503 nM.
`COc1cc(CCN)c(OC)cc1C.Cl` [2C-D (1b), 2-(2,5-Dimethoxy-4-methylphenyl)ethan-1-amine Hydrochloride]: in the assay on 5-HT2A receptor, the “β (bias factor)” value is listed as 0.372. The 50% effective concentration (EC50) came out at 16.4 nM on 5-HT2A [1] (LSD as reference agonist) and 59.4 nM at 5-HT2A [2].
The like results for `COc1cc([N+](=O)[O-])c(OC)cc1CCN.Cl` [2C-N (1g), 2-(2,5-Dimethoxy-4-nitrophenyl)ethan-1-amine Hydrochloride] were, in that order, 0.305, 32.2 nM and 92.5 nM.
As to `CCCc1cc(OC)c(CCN)cc1OC.Cl` [2C-P (1c), 2-(2,5-Dimethoxy-4-propylphenyl)ethan-1-amine Hydrochloride], the “β (bias factor)” value with 5-HT2A receptor stood at 0.313. The half-maximal effective concentration (EC50) at 5-HT2A [1] (LSD as reference agonist) came out at 10.2 nM; on 5-HT2A [2] it was 37.6 nM. Besides, the negative logarithm of the EC50 (pEC50) (as a rule, the EC50 on a negative log10 scale, so that one unit is a factor of ten) on 5-HT2A [2] is 7.43.
Take `COc1cc(SC)c(OC)cc1CCN.Cl` [2C-T (1e), 2-(2,5-Dimethoxy-4-(methylthio)phenyl)ethan-1-amine Hydrochloride]: in the assay with 5-HT2A receptor, the “β (bias factor)” value is listed as 0.343. In addition, the half-maximal effective concentration (EC50) was found to be 13.1 nM at 5-HT2A [1] (LSD as reference agonist) and 37.1 nM at 5-HT2A [2].
Regarding `CCCSc1cc(OC)c(CCN)cc1OC.Cl` [2C-T-7 (1f), 2-(2,5-Dimethoxy-4-(propylthio)phenyl)ethan-1-amine Hydrochloride], the “β (bias factor)” value with 5-HT2A receptor worked out at 0.291. This compound also displayed an EC50 at 5-HT2A [1] (LSD as reference agonist) of 4.99 nM. At 5-HT2A [2], this compound gave a half-maximal effective concentration (EC50) of 14.3 nM and a pEC50 of 7.85.
As for `NCCc1c[nH]c2ccc(O)cc12` [5-HT, 5-hydroxytryptamine, reference compound], the “β (bias factor)” value with 5-HT2A receptor is given as 0.680.
Consider `COc1cc([N+](=O)[O-])c(OC)cc1CCNCc1ccccc1F.Cl` [25N-NBF (2g), 2-(2,5-Dimethoxy-4-nitrophenyl)-N-(2-fluorobenzyl)ethan-1-amine Hydrochloride], for which the “β (bias factor)” value with 5-HT2A receptor was 0.858. Moreover, the half-maximal effective concentration (EC50) was determined as 14.2 nM on 5-HT2A [1] (LSD as reference agonist) and 74.7 nM on 5-HT2A [2].
For `COc1cc([N+](=O)[O-])c(OC)cc1CCNCc1cccc2c1OCO2.Cl` [25N-NBMD (2h), N-(Benzo[d][1,3]dioxol-4-ylmethyl)-2-(2,5-dimethoxy-4-nitrophenyl)ethan-1-amine Hydrochloride], in the assay with 5-HT2A receptor, the “β (bias factor)” value is 0.791. Moreover, the EC50 on 5-HT2A [1] (LSD as reference agonist) stood at 2 nM; at 5-HT2A [2] it was 9.32 nM.
In the case of `COc1cc([N+](=O)[O-])c(OC)cc1CCNCc1ccccc1O.Cl` [25N-NBOH (2e), 2-(((2,5-Dimethoxy-4-nitrophenethyl)amino)methyl)phenol Hydrochloride], in the assay with 5-HT2A receptor, the “β (bias factor)” value turned out to be 0.454. Besides, the “β-arrestin2 EC50 (nM) (95% CI)” value on 5-HT2A [1] (LSD as reference agonist) is given as “sub-nanomolar”. Besides, the half-maximal effective concentration (EC50) was determined as 0.662 nM on 5-HT2A [1] (LSD as reference agonist) and 1.73 nM on 5-HT2A [2].
Regarding `COc1cc([N+](=O)[O-])c(OC)cc1CCNCc1ccccc1OC.Cl` [25N-NBOMe (2f), 2-(2,5-Dimethoxy-4-nitrophenyl)-N-(2-methoxybenzyl)ethan-1-amine Hydrochloride], the “β (bias factor)” value in the assay on 5-HT2A receptor was 0.374. The figures for the concentration for a half-maximal effect (EC50) at 5-HT2A [1] (LSD as reference agonist), on 5-HT2A [3] and at 5-HT2A [2] were 1.09 nM, “sub-nanomolar” and 2.53 nM, respectively.
Take `CCCSc1cc(OC)c(CCNCc2ccccc2O)cc1OC.Cl` [25T7-NBOH (2c), 2-(((2,5-Dimethoxy-4-(propylthio)phenethyl)amino)methyl)phenol Hydrochloride]: the “β (bias factor)” value in the assay on 5-HT2A receptor is 0.209. The EC50 at 5-HT2A [1] (LSD as reference agonist) was found to be 13.9 nM; at 5-HT2A [2], 17.5 nM.
With `CCCSc1cc(OC)c(CCNCc2ccccc2OC)cc1OC.Cl` [25T7-NBOMe (2d), 2-(2,5-Dimethoxy-4-(propylthio)phenyl)-N-(2-methoxybenzyl)ethan-1-amine Hydrochloride], the “β (bias factor)” value in the assay with 5-HT2A receptor worked out at 0.281. Further, the concentration giving a half-maximal response (EC50) was determined as 7.42 nM at 5-HT2A [1] (LSD as reference agonist) and 11.3 nM at 5-HT2A [2].
With `COc1cc(SC)c(OC)cc1CCNCc1ccccc1O.Cl` [25T-NBOH (2a), 2-(((2,5-Dimethoxy-4-(methylthio)phenethyl)amino)methyl)phenol Hydrochloride], the “β (bias factor)” value with 5-HT2A receptor was found to be 0.447. Moreover, the 50% effective concentration (EC50) came out at 1.94 nM at 5-HT2A [1] (LSD as reference agonist) and 4.45 nM on 5-HT2A [2].
Take `COc1cc(SC)c(OC)cc1CCNCc1ccccc1OC.Cl` [25T-NBOMe (2b), 2-(2,5-Dimethoxy-4-(methylthio)phenyl)-N-(2-methoxybenzyl)ethan-1-amine Hydrochloride]: the “β (bias factor)” value in the assay on 5-HT2A receptor amounted to 0.332. Besides, the values for the concentration giving a half-maximal response (EC50) on 5-HT2A [1] (LSD as reference agonist) and at 5-HT2A [2] were 2.05 nM and 4.22 nM, respectively.
In the case of `COc1cc(SC)c(OC)cc1CC(C)N.Cl` (centres unmarked) [DOT (1h), 1-(2,5-Dimethoxy-4-(methylthio)phenyl)propan-2-amine Hydrochloride], the “β (bias factor)” value in the assay with 5-HT2A receptor turned out to be 0.436. Further, the EC50 at 5-HT2A [1] (LSD as reference agonist) worked out at 14.5 nM; on 5-HT2A [2] it was 65.8 nM.
The like results for `CCCSc1cc(OC)c(CC(C)N)cc1OC.Cl` (centres unmarked) [DOT-7 (1i), 1-(2,5-Dimethoxy-4-(propylthio)phenyl)propan-2-amine Hydrochloride] were, in that order, 0.305, 2.18 nM and 7.63 nM.
As for `CCN(CC)C(=O)[C@@H]1C=C2c3cccc4[nH]cc(c34)C[C@H]2N(C)C1` [LSD, lysergic acid diethylamide, reference compound], the “β (bias factor)” value with 5-HT2A receptor is given as 0. The “β-arrestin2 Emax (%) (95% CI)” value on 5-HT2A [1] (normalized to Emax of LSD) is 99.4 (92.5–106) %. On 5-HT2A [2] (normalized to Emax of LSD), the “miniGαq Emax (%) (95% CI)” value is given as 98.4 (90.4–107) %.
